Where “and” joins values, the source holds several entries; their conditions need not be identical. Identical values can stand only once.

Broadly, the Ki is a dissociation constant, usually derived from enzyme kinetics or from competition with a known ligand.

This experiment has as its target T1, Adenosine receptor A1 (Gallus gallus, UniProt P49892).
T1 sequence (P49892 whole entry): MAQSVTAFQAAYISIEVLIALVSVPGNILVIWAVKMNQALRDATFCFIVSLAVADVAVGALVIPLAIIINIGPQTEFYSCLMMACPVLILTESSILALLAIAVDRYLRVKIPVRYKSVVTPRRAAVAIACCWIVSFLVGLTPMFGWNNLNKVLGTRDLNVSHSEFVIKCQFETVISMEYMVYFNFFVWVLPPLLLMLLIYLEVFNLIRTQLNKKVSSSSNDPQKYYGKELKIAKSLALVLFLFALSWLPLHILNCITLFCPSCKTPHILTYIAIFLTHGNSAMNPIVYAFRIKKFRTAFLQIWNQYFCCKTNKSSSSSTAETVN
Take `CCNC(=O)[C@H]1O[C@@H](n2cnc3c(N)ncnc32)[C@H](O)[C@@H]1O`: the Ki was 14.4 nM and 16.9 nM.

`OC[C@H]1O[C@@H](n2cnc3c(NC4CCCCC4)ncnc32)[C@H](O)[C@@H]1O` [CHA] showed an inhibition constant (Ki) of 2.5 nM. In other words, the single-digit nanomolar range.

`CCn1c(=O)c2[nH]c(-c3ccccc3)nc2n(CC)c1=O` [1,3-Diethyl-8-phenyl-3,7-dihydro-purine-2,6-dione]: the Ki was 2070 nM and 790 nM.

Values taken from BindingDB's records for PubMed 3252029 (University of Illinois At Chicago, 1988).
